# According to PubChem BioAssay (NCI):
#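 Briefly, cells in 96-well plates were exposed to five compound concentrations for 48 h, and endpoints were estimated by linear interpolation. The concentration for 50% growth inhibition is given as GI50. The concentration for full growth arrest is given as TGI.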
# Tests used:
# Assay in all cases: NCI-60 cell line screen, 48 h
# M14 melanoma = test system: M14 melanoma
# SK-OV-3 ovarian = test system: SK-OV-3 ovarian
# HL-60(TB) leukemia = test system: HL-60(TB) leukemia
# 786-0 renal = test system: 786-0 renal
# OVCAR-5 ovarian = test system: OVCAR-5 ovarian
# HCT-15 colon = test system: HCT-15 colon
# IGROV1 ovarian = test system: IGROV1 ovarian
# T-47D breast = test system: T-47D breast
# U251 CNS = test system: U251 CNS
# MDA-MB-231 breast = test system: MDA-MB-231 breast
# MDA-MB-435 = test system: MDA-MB-435
# DU-145 prostate = test system: DU-145 prostate
# ACHN renal = test system: ACHN renal
# K-562 leukemia = test system: K-562 leukemia
# KM12 colon = test system: KM12 colon
# TK-10 renal = test system: TK-10 renal
# OVCAR-4 ovarian = test system: OVCAR-4 ovarian
# PC-3 prostate = test system: PC-3 prostate
# OVCAR-3 ovarian = test system: OVCAR-3 ovarian
# NCI-H460 lung = test system: NCI-H460 lung
# HOP-62 NSCLC = test system: HOP-62 NSCLC
# SK-MEL-5 melanoma = test system: SK-MEL-5 melanoma
# CAKI-1 renal = test system: CAKI-1 renal
# HCT-116 colon = test system: HCT-116 colon
# SNB-19 CNS = test system: SNB-19 CNS
# SK-MEL-2 melanoma = test system: SK-MEL-2 melanoma
# NCI-H522 lung = test system: NCI-H522 lung
# HCC-2998 colon = test system: HCC-2998 colon
# SN12C renal = test system: SN12C renal
# A498 renal = test system: A498 renal
# MALME-3M melanoma = test system: MALME-3M melanoma
# HT29 colon = test system: HT29 colon
# MCF7 breast = test system: MCF7 breast
# SK-MEL-28 melanoma = test system: SK-MEL-28 melanoma
# LOX IMVI melanoma = test system: LOX IMVI melanoma
# A549 NSCLC = test system: A549 NSCLC
# UO-31 renal = test system: UO-31 renal
# RPMI-8226 leukemia = test system: RPMI-8226 leukemia
# COLO 205 colon = test system: COLO 205 colon
# HS 578T breast = test system: HS 578T breast
# OVCAR-8 ovarian = test system: OVCAR-8 ovarian
# UACC-257 melanoma = test system: UACC-257 melanoma
# NCI-H226 lung = test system: NCI-H226 lung
# SW-620 colon = test system: SW-620 colon
# SF-539 CNS = test system: SF-539 CNS
# NCI-H23 lung = test system: NCI-H23 lung
# EKVX NSCLC = test system: EKVX NSCLC
# SF-295 CNS = test system: SF-295 CNS
# UACC-62 melanoma = test system: UACC-62 melanoma
# NCI/ADR-RES ovarian = test system: NCI/ADR-RES ovarian
# SF-268 CNS = test system: SF-268 CNS
# RXF 393 renal = test system: RXF 393 renal
# SNB-75 CNS = test system: SNB-75 CNS
# HOP-92 NSCLC = test system: HOP-92 NSCLC
smiles,measurement,setting,value
Cc1c(N2C(=O)/C(=C\c3ccccc3O)N=C2c2ccccc2)c(=O)n(-c2ccccc2)n1C,GI50,M14 melanoma,> 100 µM
same,TGI,M14 melanoma,> 100 µM
same,GI50,SK-OV-3 ovarian,57.3 µM
same,TGI,SK-OV-3 ovarian,> 100 µM
same,GI50,HL-60(TB) leukemia,> 100 µM
same,TGI,HL-60(TB) leukemia,> 100 µM
same,GI50,786-0 renal,29.9 µM
same,TGI,786-0 renal,> 100 µM
same,GI50,OVCAR-5 ovarian,> 100 µM
same,TGI,OVCAR-5 ovarian,> 100 µM
same,GI50,HCT-15 colon,> 100 µM
same,TGI,HCT-15 colon,> 100 µM
same,GI50,IGROV1 ovarian,23.8 µM
same,TGI,IGROV1 ovarian,> 100 µM
same,GI50,T-47D breast,16.3 µM
same,TGI,T-47D breast,> 100 µM
same,GI50,U251 CNS,40.2 µM
same,TGI,U251 CNS,> 100 µM
same,GI50,MDA-MB-231 breast,41.9 µM
same,TGI,MDA-MB-231 breast,> 100 µM
same,GI50,MDA-MB-435,54 µM
same,TGI,MDA-MB-435,> 100 µM
same,GI50,DU-145 prostate,87.4 µM
same,TGI,DU-145 prostate,> 100 µM
same,GI50,ACHN renal,53.8 µM
same,TGI,ACHN renal,> 100 µM
same,GI50,K-562 leukemia,> 100 µM
same,TGI,K-562 leukemia,> 100 µM
same,GI50,KM12 colon,21 µM
same,TGI,KM12 colon,> 100 µM
same,GI50,TK-10 renal,33.4 µM
same,TGI,TK-10 renal,> 100 µM
same,GI50,OVCAR-4 ovarian,> 100 µM
same,TGI,OVCAR-4 ovarian,> 100 µM
same,GI50,PC-3 prostate,> 100 µM
same,TGI,PC-3 prostate,> 100 µM
same,GI50,OVCAR-3 ovarian,> 100 µM
same,TGI,OVCAR-3 ovarian,> 100 µM
same,GI50,NCI-H460 lung,> 100 µM
same,TGI,NCI-H460 lung,> 100 µM
same,GI50,HOP-62 NSCLC,19.4 µM
same,TGI,HOP-62 NSCLC,46.1 µM
same,GI50,SK-MEL-5 melanoma,62.3 µM
same,TGI,SK-MEL-5 melanoma,> 100 µM
same,GI50,CAKI-1 renal,15.6 µM
same,TGI,CAKI-1 renal,76.9 µM
same,GI50,HCT-116 colon,51.6 µM
same,TGI,HCT-116 colon,> 100 µM
same,GI50,SNB-19 CNS,54.4 µM
same,TGI,SNB-19 CNS,> 100 µM
same,GI50,SK-MEL-2 melanoma,> 100 µM
same,TGI,SK-MEL-2 melanoma,> 100 µM
same,GI50,NCI-H522 lung,64 µM
same,TGI,NCI-H522 lung,> 100 µM
same,GI50,HCC-2998 colon,> 100 µM
same,TGI,HCC-2998 colon,> 100 µM
same,GI50,SN12C renal,> 100 µM
same,TGI,SN12C renal,> 100 µM
same,GI50,A498 renal,> 100 µM
same,TGI,A498 renal,> 100 µM
same,GI50,MALME-3M melanoma,49.1 µM
same,TGI,MALME-3M melanoma,> 100 µM
same,GI50,HT29 colon,> 100 µM
same,TGI,HT29 colon,> 100 µM
same,GI50,MCF7 breast,3.83 µM
same,TGI,MCF7 breast,> 100 µM
same,GI50,SK-MEL-28 melanoma,> 100 µM
same,TGI,SK-MEL-28 melanoma,> 100 µM
same,GI50,LOX IMVI melanoma,62.3 µM
same,TGI,LOX IMVI melanoma,> 100 µM
same,GI50,A549 NSCLC,> 100 µM
same,TGI,A549 NSCLC,> 100 µM
same,GI50,UO-31 renal,> 100 µM
same,TGI,UO-31 renal,> 100 µM
same,GI50,RPMI-8226 leukemia,> 100 µM
same,TGI,RPMI-8226 leukemia,> 100 µM
same,GI50,COLO 205 colon,> 100 µM
same,TGI,COLO 205 colon,> 100 µM
same,GI50,HS 578T breast,27.9 µM
same,TGI,HS 578T breast,75.3 µM
same,GI50,OVCAR-8 ovarian,63.2 µM
same,TGI,OVCAR-8 ovarian,> 100 µM
same,GI50,UACC-257 melanoma,> 100 µM
same,TGI,UACC-257 melanoma,> 100 µM
same,GI50,NCI-H226 lung,63.7 µM
same,TGI,NCI-H226 lung,> 100 µM
same,GI50,SW-620 colon,> 100 µM
same,TGI,SW-620 colon,> 100 µM
same,GI50,SF-539 CNS,33.5 µM
same,TGI,SF-539 CNS,> 100 µM
same,GI50,NCI-H23 lung,> 100 µM
same,TGI,NCI-H23 lung,> 100 µM
same,GI50,EKVX NSCLC,77 µM
same,TGI,EKVX NSCLC,> 100 µM
same,GI50,SF-295 CNS,26.2 µM
same,TGI,SF-295 CNS,78.6 µM
same,GI50,UACC-62 melanoma,53.9 µM
same,TGI,UACC-62 melanoma,> 100 µM
same,GI50,NCI/ADR-RES ovarian,76.3 µM
same,TGI,NCI/ADR-RES ovarian,> 100 µM
same,GI50,SF-268 CNS,29.8 µM
same,TGI,SF-268 CNS,> 100 µM
same,GI50,RXF 393 renal,53.8 µM
same,TGI,RXF 393 renal,> 100 µM
same,GI50,SNB-75 CNS,15.7 µM
same,TGI,SNB-75 CNS,40.3 µM
same,GI50,HOP-92 NSCLC,17.6 µM
same,TGI,HOP-92 NSCLC,68.4 µM
